Test results from patent US12522596B2, “Compounds as GLP-1R agonists” (Terns Pharmaceuticals, Inc., priority 2021, dated 2026).
Read-outs that look alike come from different tables or passages of the source.

Experiment: Pharmacokinetics in hGLP-1R mice after oral dosing
Type: in vivo, male C57BL/6J hGLP-1R mouse
Settings: male, C57BL/6J hGLP-1R, mouse, plasma, po; for concentration at 120 min: hGLP-1R mouse plasma collected at 120 min (IPGTT cohort); for MRT inf: read-out: MRT0-inf; for MRT last: read-out: MRT0-last; for AUC0-inf: read-out: AUC0-inf
Experimental: IPGTT (120 min)—PK bleeding: 40 μL blood samples (all treatment groups) were collected from mice under the jaw at IPGTT-120 min after blood glucose measurement into pre-chilled EDTA-2K tubes. Blood samples were processed for plasma by centrifugation at 4° C., 3200×g for 10 min. 15 μL plasma was stored at −80° C. for PK analysis. From 4 mice in Group 7 of the PD cohort, whole brain was collected after blood is harvested at 120 min post dose, rinsed with saline and patted dry and placed into a pre-weighed tube and stored at −80° C. collected for PK analysis.
PK bleeding group design is described in Table 9.
PK bleeding: 30 μL blood was collected at 0.25, 0.5, 1, 2, 4, and 8 h. Blood samples were processed for plasma by centrifugation at 4° C., 3200×g for 10 min. 12 μL plasma was collected at −80° C. for further analysis. From 3 mice in Group 7 of the PK cohort, whole brain was collected after blood is harvested at 8 hr post dose, rinsed with saline and patted dry and placed into a pre-weighed tube and stored at −80° C. collected for PK analysis.
For plasma: An aliquot of 3 μL sample was protein precipitated with 60 μL internal standard (100 ng/mL Labetalol & 100 ng/ml Dexamethasone & 100 ng/ml Tolbutamide & 100 ng/mL Verapamil & 100 ng/ml Glyburide & 100 ng/ml Celecoxib in ACN) and then the mixture was vortex-mixed for 10 min at 800 rpm and centrifuged for 15 min at 3220×g, 4° C.
The linear/log trapezoidal rule was applied in obtaining the PK parameters. Individual plasma concentration values that were below the lower limit of quantitation (LOQ) were excluded from the PK parameter calculation. The nominal dose levels and nominal sampling times were used in the calculation of all pharmacokinetic parameters.

[1] = 0.3 mg/kg, hGLP-1R mouse plasma, PO 0.3 mg/kg, read-out: Mean Concentration
[2] = 0.3 mg/kg, hGLP-1R mouse plasma, PO 0.3 mg/kg, individual animals, read-out: Concentration
[3] = 0.3 mg/kg, hGLP-1R mouse plasma, PO 0.3 mg/kg, individual mice
[4] = 0.3 mg/kg, hGLP-1R mouse plasma, PO 0.3 mg/kg, mean
[5] = 1 mg/kg, hGLP-1R mouse plasma, PO 1 mg/kg, individual animals, read-out: Concentration
[6] = 1 mg/kg, hGLP-1R mouse plasma, PO 1 mg/kg, read-out: Mean Concentration
[7] = 1 mg/kg, hGLP-1R mouse plasma, PO 1 mg/kg, individual mice
[8] = 1 mg/kg, hGLP-1R mouse plasma, PO 1 mg/kg, mean

Work on `N#Cc1ccc(COc2cccc(C3CCN(Cc4nc5ccc(C(=O)O)cc5n4C[C@@H]4CCO4)CC3)n2)c(F)c1` [Reference Compound A, reference compound] yielded a concentration at 120 min (0.3 mg/kg, PO 0.3 mg/kg, read-out: Mean Concentration) of 0.00716 µg/mL, a concentration at 0.25 h [1] of 0.0249 µg/mL and a concentration at 0.5 h [2] of 0.0196 µg/mL. The concentration at 0.5 h [1] was 0.0173 µg/mL, the concentration at 1 h [1] was 0.016 µg/mL and the concentration at 2 h (0.3 mg/kg, hGLP-1R mouse plasma, PO 0.3 mg/kg) was 0.00337 µg/mL. The concentration at 4 h [2] was less than 0.001 µg/mL, the MRT inf [3] was 56.6 min and the MRT last [3] was 48.2 min. For the same compound, the half-life (0.3 mg/kg, hGLP-1R mouse plasma, PO 0.3 mg/kg, individual mice, read-out: T1/2 (converted)) was 28.9 min, the Tmax (0.3 mg/kg, hGLP-1R mouse plasma, PO 0.3 mg/kg, individual mice, read-out: Tmax) was 30 min and the AUC0-inf [4] was 0.0276 µg·h/mL. The AUC(0-t) (0.3 mg/kg, hGLP-1R mouse plasma, PO 0.3 mg/kg, mean, read-out: AUC0-last) was 0.0245 µg·h/mL, the Cmax (0.3 mg/kg, hGLP-1R mouse plasma, PO 0.3 mg/kg, mean, read-out: Cmax) was 0.027 µg/mL and the MRT inf [4] was 62.4 min. The MRT last [4] was 49.2 min, the half-life (0.3 mg/kg, hGLP-1R mouse plasma, PO 0.3 mg/kg, mean, read-out: T1/2 (converted)) was 36.2 min and the Tmax (0.3 mg/kg, hGLP-1R mouse plasma, PO 0.3 mg/kg, mean, read-out: Tmax) was 25 min. It also gave an AUC(0-t) (1 mg/kg, hGLP-1R mice, total, PO 1.0 mg/kg, read-out: AUClast Mean) of 0.0855 µg·h/mL, a Cmax (1 mg/kg, hGLP-1R mice, total, PO 1.0 mg/kg, read-out: Cmax Mean) of 0.0497 µg/mL and a Tmax (1 mg/kg, hGLP-1R mice, total, PO 1.0 mg/kg, read-out: Tmax Median) of 30 min. The concentration at 120 min (1 mg/kg, PO 1 mg/kg, read-out: Mean Concentration) was 0.0214 µg/mL, the concentration at 0.25 h [5] was 0.0435 µg/mL and the concentration at 0.25 h [6] was 0.0357 µg/mL. For the same compound, the concentration at 0.5 h [5] was 0.0628 µg/mL, the concentration at 0.5 h [6] was 0.0481 µg/mL and the concentration at 1 h [6] was 0.0395 µg/mL. The concentration at 2 h (1 mg/kg, hGLP-1R mouse plasma, PO 1 mg/kg) was 0.0145 µg/mL, the concentration at 4 h [5] was 0.00359 µg/mL and the concentration at 4 h [6] was 0.0034 µg/mL. It also gave a concentration at 8 h (1 mg/kg, hGLP-1R mouse plasma, PO 1 mg/kg, 8 h, read-out: Mean Concentration) of 0.00242 µg/mL, an AUC0-inf [7] of 0.105 µg·h/mL and an AUC(0-t) (1 mg/kg, hGLP-1R mouse plasma, PO 1 mg/kg, individual mice, read-out: AUC0-last) of 0.101 µg·h/mL. For the same compound, the Cmax (1 mg/kg, hGLP-1R mouse plasma, PO 1 mg/kg, individual mice, read-out: Cmax) was 0.0628 µg/mL, the MRT last [7] was 78 min and the Tmax (1 mg/kg, hGLP-1R mouse plasma, PO 1 mg/kg, individual mice, read-out: Tmax) was 30 min. The AUC0-inf [8] was 0.0938 µg·h/mL, the AUC(0-t) (1 mg/kg, hGLP-1R mouse plasma, PO 1 mg/kg, mean, read-out: AUC0-last) was 0.0855 µg·h/mL and the Cmax (1 mg/kg, hGLP-1R mouse plasma, PO 1 mg/kg, mean, read-out: Cmax) was 0.0497 µg/mL. The MRT inf [8] was 161 min, the MRT last [8] was 109 min and the half-life (1 mg/kg, hGLP-1R mouse plasma, PO 1 mg/kg, mean, read-out: T1/2 (converted)) was 119 min. For the same compound, the Tmax (1 mg/kg, hGLP-1R mouse plasma, PO 1 mg/kg, mean, read-out: Tmax) was 40 min, the Tmax (3 mg/kg, hGLP-1R mice, oral, across the doses tested (0.3, 1 and, for Compound 2, 3 mg/kg), read-out: median Tmax) was 30 min and the half-life (hGLP-1R male mice, oral, across doses, read-out: terminal T1/2) was less than 120 min.
